Reference: a melting point compilation (Tetko et al.; mined from patent text by program, amines drawn as free bases though some values may be those of a salt)
Non-standard residues stand in square brackets, D forms with d. Residues, ends and D or L forms follow the SMILES beside them. *: point of attachment. 1Nal = N[C@@H](Cc1cccc2ccccc12)C(=O)O; Sta = CC(C)C[C@H](N)[C@@H](O)CC(=O)O; Cbz = O=C(OCc1ccccc1)*; NHNH2 = NN*

SMILES	melting point
COc1cc(C)c([N+](=O)[O-])c(C)c1	50 to 52 °C
Cc1cc(C(=O)O)cc(C)c1OCCNC(=O)C1Cc2ccccc2N1S(=O)(=O)c1ccc(-c2ccc(F)cc2)cc1 (configuration not stated)	124 to 128 °C
CCOP(=O)(/C=C/c1cn(-c2ccccc2)nc1OCc1ccc(OCc2nc(-c3cccnc3)oc2C)c(OC)c1)OCC	128 to 129 °C
O=C(O)[C@H](Cc1ccccc1)Nc1c(NCc2cccnc2)c(=O)c1=O	259 to 261 °C
CC(=O)NCC1CN=C(c2cc3cccc(N(C)S(=O)(=O)c4cccs4)c3[nH]2)S1 (configuration not stated)	212 to 213 °C
C(#Cc1ccccn1)CCN1CC=C(c2ccccc2)CC1	87.5 to 88.5 °C
COc1cc(C(=O)NCCc2ccccc2)cc([N+](=O)[O-])c1OC	121 to 122 °C
CC(C)(C)OC(=O)NC1(C(=O)NCC(F)(F)F)CC1	166 to 167 °C
S=C(NCCCCN(Cc1ccc(Cl)c(Cl)c1)c1ccc(Br)cn1)NCCCc1c[nH]cn1	63 to 67 °C
CCOC(=O)C1=C(C)N=C(SCc2ccc(OC)cc2)N(C(=O)OCC)C1c1ccccc1OC (configuration not stated)	116 to 118 °C
c1nc(SCC2CCCCC2)n[nH]1	74 to 78 °C
O=C1CSCc2cc(Br)ccc21	81 °C
O=C(O)COc1cc(Cl)ccc1C(=O)NCc1cc(F)cc(C(F)(F)F)c1	160 to 162 °C
CCCCCCCCCCCCOCCCNC(=O)c1cc(OCC(=O)O)c2ccccc2c1O	150 °C
CC(C)C[C@H](NC(=O)[C@H](Cc1c[nH]cn1)NC(=O)[C@H](Cc1cccc2ccccc12)NC(=O)OCc1ccccc1)[C@@H](O)CC(=O)NN (Cbz-[1Nal]-His-[Sta]-NHNH2)	120 to 127 °C
CCOC(=O)c1cn(-c2cc(NC=O)c(F)cc2F)c2c(F)c(F)c(F)c(NCc3ccccc3)c2c1=O	151 to 156 °C
CCOC(=O)CCNC(=O)C(Cc1ccc(-c2ccccc2)cc1)N(CP(=O)(O)O)C(OC(=O)Cc1ccccc1)C(C)C (configuration not stated)	148 to 150 °C
Cc1c(NC(=O)C(CS)CC(C)C)cccc1C(=O)O (configuration not stated)	166 to 168 °C
COC(=O)C(=O)Nc1cccc2c1C(=O)N(C1CCC(=O)NC1=O)C2=O (configuration not stated)	247 to 249 °C
CCC(CC)(CC(=O)Nc1cccc(OCc2ccc3cc(C)ccc3n2)c1)C(=O)O	175 °C
Cc1cc(C)cc(S(=O)(=O)c2ccc(N)cc2)c1	178 to 179 °C
CCCCCN(CCC12CC3CC(CC(C3)C1)C2)C(=O)NCC(C)Cc1ccncc1 (configuration not stated)	103 to 104 °C
COC(=O)c1c(C(=O)OC)c(-c2ccc(OC)c(OC)c2)c2c(OC)c(OC)c(OC)cc2c1O	178 to 179 °C
N=C(N)NCCc1ccc(OCCC(c2ccc(Cl)cc2)(c2ccc(Cl)cc2)c2ccc(Cl)cc2)cc1	146 to 150 °C
Cc1c(N)c(C)c(C(C)C)c2c1CC(C)(CI)O2 (configuration not stated)	84 to 86 °C

SMILES	melting point
COc1cc(CN2CCN(c3cccc(C)c3Cl)CC2)cc(OC)c1OC	112 to 113 °C
CCCC1(O)CCC2C3CCC4=CC(=O)CCC4C3CCC21CC (configuration not stated)	132 to 134 °C
CCOc1c(Cc2c[nH]c3ccccc23)[nH]c(=O)c(CC(C)C)[n+]1[O-]	192 to 193 °C
O=C(N[C@H](Cc1ccc(CC(F)(F)C(F)(F)F)cc1)[C@@H](O)c1cccc(Cl)c1)c1cccc2c1C=CCCC2 (racemic)	176 to 177 °C
Cc1c(-n2ccnc2)[nH]c2ccccc12	156 to 158 °C
COc1ccc(C(N)=S)c(OC)c1	115 to 118 °C
N#Cc1nc(Cl)c(-c2c(F)cc(F)cc2F)c(N2CCCO2)n1	107 to 113 °C
COc1ccc(Cn2cnc3c(-c4ccco4)ncnc32)cc1C	169 to 170 °C
Nc1ccnn1-c1c(Cl)cc(C(F)(F)F)c(Cl)c1Cl	109 to 114 °C
Cc1cccc(NC(=O)C2=C(O)c3ccc4ccccc4c3S(=O)(=O)N2)c1	245 °C
COC(=O)C1=C(C)NC(C)=C(C(=O)OCCCl)C1c1cccc([N+](=O)[O-])c1 (configuration not stated)	129 to 131 °C
Nc1c(C(=O)c2cc(F)cc(F)c2)[nH]c2cc(Cl)ccc12	149 to 151 °C
CS(=O)(=O)c1ccc(-c2cc(C(F)F)nn2-c2ccc(F)cc2)cc1F	201 to 202 °C
Cc1noc(NS(=O)(=O)c2ccccc2-c2ccc(-c3ncco3)cc2Cc2ncc(-c3ccccc3)o2)c1C	120 to 128 °C
CCOc1c(SC(F)(F)F)c(C#N)nn1-c1c(Cl)cc(C(F)(F)F)cc1Cl	106 °C
COc1ccc(CCNC(=O)CN(C(C)=O)c2cccc(C(N)=O)c2)cc1OC	111 to 113 °C
CCCN1C(=O)CC(=O)N(c2ccccc2)c2cc(Cl)ccc21	192 to 194 °C
COc1ccc2c(c1)Nc1[nH]cnc(=O)c1C2	> 300 °C
CCCN(CCOc1c(Cl)cccc1Cl)C1CCc2c(ccc(OCc3ccc(OC(=O)C(C)C)cc3)c2OCc2ccc(OC(=O)C(C)C)cc2)C1 (configuration not stated)	84 to 86 °C
N#CC1c2cc(Cl)c(Cl)cc2C=CN1C(=O)c1ccccc1 (configuration not stated)	194 to 196 °C
CCOC(=O)C1=CC2(CCC1S(=O)(=O)Nc1ccc(F)cc1Cl)OC(CC)C(CC)(CC)O2 (configuration not stated)	124 to 126 °C
O=C1NC(=O)C2(CC(O)c3ccc(F)cc32)N1 (configuration not stated)	209 to 211 °C
CC(C)C(C)OC(=S)c1ccc(N)cc1Cl (configuration not stated)	43 to 46 °C
CCCCCCc1ccc2c(c1)c1cc(CCCCCC)ccc1n2CCN	56 °C

The next lines start with the values.

melting point	SMILES
> 250 °C	CN1CCC(c2c[nH]c3ccc(NS(=O)(=O)c4ccc(I)cc4)cc23)CC1
156 to 157 °C	CSc1c(CC(=O)O)ccc2c3ccccc3n(Cc3ccc(F)cc3)c12
168 to 172 °C	Nc1ccc(C(=O)N2CCCCc3sccc32)cc1
101 to 105 °C	CN(C)[C@H]1CCN(C(=O)c2ccc(Cc3cn(C)c4ccccc34)cc2)C1
140 to 141 °C	Brc1ccc(CN2CCN(c3ccncc3)CC2)cc1
229 to 232 °C	O=c1cc(-c2ccoc2)c2ccc(O)cc2o1
171 to 173 °C	c1cncc(-c2cc(C3CCN(CCc4cccc5ccccc45)CC3)n[nH]2)c1
127 to 135 °C	Cc1noc(NS(=O)(=O)c2ccccc2-c2ccc(-c3ncco3)cc2CN2CCc3ccccc3C2=O)c1C
131 °C	Oc1ccc(-c2nn(C3CCCC3)c3c(F)cccc23)cc1
63.5 to 65.5 °C	CCN(CC)C(=O)c1c(C=O)cccc1[Si](C)(C)C
207 to 210 °C	CCOCc1nc2c(N)nc3ccc(N4CCOC4=O)cc3c2n1CC(C)(C)O
49 to 51 °C	O=C(c1ccccc1)c1ccc(SCCO)cc1
266 to 267 °C	O=C(CCc1ccccc1)Nc1cc(C(=O)O)ccn1
108 to 111 °C	CC(CCN1CCCCC1)CC(=O)NNC(=O)N1Cc2ccccc2Oc2ccc(Cl)cc21 (configuration not stated)
226 to 228 °C	O=C(Nc1ccc2c(c1)C(=O)NC2=O)C(=O)N1CCC(Cc2ccc(F)cc2)CC1
64 to 66 °C	CCN(C(C)C)C(C)CC1=C(c2ccc(OC)cc2)CCCNC1=O (configuration not stated)
150 to 152 °C	CC(=O)NC[C@H]1CN(c2ccc(N3CCN(CCN4CCOCC4)CC3)c(F)c2)C(=O)O1
135 to 140 °C	NC(=O)CCN1CCC(C2c3ccccc3C=Cc3ccccc32)CC1
202 to 203 °C	CC(C)c1ccc(C(=O)NCCOc2ccc(C(=O)O)cc2)cc1
190 to 191 °C	O=C(O)CC1(c2ccc(Cl)cc2)CNC(=O)C1 (configuration not stated)
107 to 109 °C	Clc1cccc(-c2nc3ccccc3n2-c2ccccc2)c1
144 to 146 °C	COC(=O)c1ccc(-c2nccc3ccn(S(=O)(=O)c4ccc(OC)cc4)c23)cc1
> 90 °C	Cc1cc(CN(Cc2ccc(F)cc2)c2cc(-c3ccc(C(F)(F)F)cc3)nn2C)cc(C)c1OC(C)(C)C(=O)O
158 °C	COc1ccccc1OCC(O)CN1CCCC(Cn2c(=O)[nH]c3ccccc32)C1 (configuration not stated)

melting point	SMILES
167 to 168 °C	CCOC(=O)C1(Cc2ccc(OC)c(OC)c2)C(=O)NCC1c1ccc2c(c1)OCO2 (configuration not stated)
118 °C	C#CCCC(=O)N1CCC(=Cc2ccc(C3=NCCO3)cc2)CC1
104 to 107 °C	CCOC(=O)c1cc(-c2ccccc2)nn1Cc1ccc(Cl)cc1Cl
236 to 238 °C	COc1ncccc1C(=O)NC1CNCCn2c1nc(-c1ccncn1)cc2=O (racemic)
142 to 143 °C	O=C1OCCC1Nc1ccc(Nc2ccccc2)cc1 (configuration not stated)
134 to 136 °C	Cc1cc(-n2ccc(OCCC3CC3)cc2=O)sc1C(=O)NCc1ccccc1
38.5 to 40.5 °C	CC(C)(C)c1ccccc1C(=O)O
117 to 118 °C	CN(C)C(=O)COc1ccc2c(c1)C[C@@H](NC(=O)OCc1ccccc1)CC2
148 °C	O=C1CCCN1c1ccc(N2C[C@H](CO)OC2=O)cc1
143 to 146 °C	COc1ccc(C(=O)c2cc3cc(Br)ccc3o2)cc1
90 °C	CCOC(=O)c1nccn1C1Cc2ccc(Cl)c(Cl)c2C1=O (configuration not stated)
202 to 205 °C	NC(=O)C1CCc2cc(S(=O)(=O)Nc3ccc(-n4nnn(CCCC5CCCC5)c4=O)cc3)ccc2O1 (configuration not stated)
104 to 106 °C	CCS(=O)(=O)N(Cc1cccnc1)c1ccc(Cl)cc1
191 to 193 °C	O=C(O)CN1C(=O)C(=CC2CCCCC2)SC1=S
108 to 109 °C	CC(=O)OC(CN(Cc1ccccc1)Cc1ccccc1)c1cc(C#N)c2c(c1)CCN2C(C)=O (configuration not stated)
135 to 136 °C	CCc1cc(OCc2ccccc2)cc(C(=O)O)c1C(=O)OC
85 to 86 °C	CCOC(=O)c1c(C)cc2cnc(-c3ccccc3)nc2c1C
63 °C	COC(=O)c1ccc(Cc2cc3cc(C(F)(F)F)ccc3n2S(=O)(=O)c2ccc3c(c2)N(C)CCO3)cc1
64 to 66 °C	CCCc1ccc(-c2c(-c3ccc(S(C)(=O)=O)cc3)cnn(CC(F)(F)F)c2=O)cc1
153 to 158 °C	COc1ccc(C=C2NC(=O)NC2=O)cc1OC
94 °C	CNC(=S)NS(=O)(=O)c1cc(CCNC(=O)/C=C/c2cccs2)ccc1OCc1ccccc1
93 to 96 °C	O=C(O)CCCCCC(=O)CCc1ccc(Cl)cc1
246 °C	CC1(C)CC(n2cncc2C(=O)O)c2ccccc2O1 (configuration not stated)
44 to 46 °C	CCOC(=O)c1cc2n(n1)CCCO2
